From ChEMBL document CHEMBL5108009, “Positron Emission Tomography (PET) Imaging Tracers for Serotonin Receptors” (J Med Chem, 2022)

How the values were obtained:
[1] = Drug uptake in pig brain cortex assessed as non-displaceable binding potential; assay type: ADME, tissue-based, Sus scrofa; conditions: in vivo
[2] = Binding affinity to pig 5-HT1B receptor (unknown origin) assessed as inhibition constant
[3] = target: 5-hydroxytryptamine receptor 1D (Homo sapiens, UniProt P28221); assay: Binding affinity to 5-HT1D (unknown origin) assessed as inhibition constant
Chain of 5-hydroxytryptamine receptor 1D (P28221 whole entry): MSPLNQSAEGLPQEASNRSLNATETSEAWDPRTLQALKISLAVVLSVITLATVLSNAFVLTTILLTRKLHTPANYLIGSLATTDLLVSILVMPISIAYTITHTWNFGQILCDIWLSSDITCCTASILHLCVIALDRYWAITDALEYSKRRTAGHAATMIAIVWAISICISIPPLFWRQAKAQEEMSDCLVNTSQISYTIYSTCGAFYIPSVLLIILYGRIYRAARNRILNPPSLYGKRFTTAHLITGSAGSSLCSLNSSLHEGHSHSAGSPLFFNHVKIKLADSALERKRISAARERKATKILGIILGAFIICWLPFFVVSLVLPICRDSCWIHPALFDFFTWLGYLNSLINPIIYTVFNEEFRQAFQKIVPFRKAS

[4] = target: 5-hydroxytryptamine receptor 1B (Homo sapiens, UniProt P28222)
Chain of 5-hydroxytryptamine receptor 1B (P28222 whole entry): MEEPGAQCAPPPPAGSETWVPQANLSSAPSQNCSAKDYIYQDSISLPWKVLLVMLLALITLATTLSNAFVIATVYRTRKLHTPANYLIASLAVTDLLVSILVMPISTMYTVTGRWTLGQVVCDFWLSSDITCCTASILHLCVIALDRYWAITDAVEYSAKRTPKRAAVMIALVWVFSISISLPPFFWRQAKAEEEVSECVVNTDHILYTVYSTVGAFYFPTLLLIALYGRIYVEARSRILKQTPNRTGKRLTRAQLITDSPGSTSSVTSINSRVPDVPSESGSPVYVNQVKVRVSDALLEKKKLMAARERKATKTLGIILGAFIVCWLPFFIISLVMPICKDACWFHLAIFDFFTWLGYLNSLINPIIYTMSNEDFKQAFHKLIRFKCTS

[5] = target: T1, 5-hydroxytryptamine receptor 7 (Homo sapiens, UniProt P34969)
T1 sequence (P34969 whole entry): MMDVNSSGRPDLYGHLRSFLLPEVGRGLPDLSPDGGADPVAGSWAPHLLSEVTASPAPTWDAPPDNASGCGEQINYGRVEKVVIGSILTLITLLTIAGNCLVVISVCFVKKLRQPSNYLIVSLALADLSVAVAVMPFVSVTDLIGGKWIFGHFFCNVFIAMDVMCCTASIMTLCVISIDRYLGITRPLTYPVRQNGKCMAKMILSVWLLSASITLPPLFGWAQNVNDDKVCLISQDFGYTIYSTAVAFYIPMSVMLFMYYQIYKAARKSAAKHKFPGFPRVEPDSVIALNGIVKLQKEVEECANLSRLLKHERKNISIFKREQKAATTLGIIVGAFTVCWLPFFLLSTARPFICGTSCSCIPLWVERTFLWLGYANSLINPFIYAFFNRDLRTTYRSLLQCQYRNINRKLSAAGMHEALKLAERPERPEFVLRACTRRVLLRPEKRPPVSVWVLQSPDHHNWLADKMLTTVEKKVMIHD

[6] = target: 5-hydroxytryptamine receptor 2B (Homo sapiens, UniProt P41595)
Chain of 5-hydroxytryptamine receptor 2B (P41595 whole entry): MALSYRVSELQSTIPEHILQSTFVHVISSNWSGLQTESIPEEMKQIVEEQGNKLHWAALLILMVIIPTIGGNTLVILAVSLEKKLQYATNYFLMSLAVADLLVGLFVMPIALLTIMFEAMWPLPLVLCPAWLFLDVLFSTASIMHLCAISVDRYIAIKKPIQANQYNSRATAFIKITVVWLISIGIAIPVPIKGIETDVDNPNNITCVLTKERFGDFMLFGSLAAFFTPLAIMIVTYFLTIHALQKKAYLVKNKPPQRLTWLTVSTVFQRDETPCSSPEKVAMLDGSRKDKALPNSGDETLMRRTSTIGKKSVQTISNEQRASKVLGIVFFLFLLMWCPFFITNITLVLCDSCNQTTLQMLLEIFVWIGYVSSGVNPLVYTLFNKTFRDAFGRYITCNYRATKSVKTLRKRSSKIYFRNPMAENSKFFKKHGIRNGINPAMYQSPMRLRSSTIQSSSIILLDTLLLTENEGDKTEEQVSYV

[7] = target: 5-hydroxytryptamine receptor 5A (Homo sapiens, UniProt P47898); assay: Binding affinity to 5-HT5A receptor (unknown origin) assessed as inhibition constant
Chain of 5-hydroxytryptamine receptor 5A (P47898 whole entry): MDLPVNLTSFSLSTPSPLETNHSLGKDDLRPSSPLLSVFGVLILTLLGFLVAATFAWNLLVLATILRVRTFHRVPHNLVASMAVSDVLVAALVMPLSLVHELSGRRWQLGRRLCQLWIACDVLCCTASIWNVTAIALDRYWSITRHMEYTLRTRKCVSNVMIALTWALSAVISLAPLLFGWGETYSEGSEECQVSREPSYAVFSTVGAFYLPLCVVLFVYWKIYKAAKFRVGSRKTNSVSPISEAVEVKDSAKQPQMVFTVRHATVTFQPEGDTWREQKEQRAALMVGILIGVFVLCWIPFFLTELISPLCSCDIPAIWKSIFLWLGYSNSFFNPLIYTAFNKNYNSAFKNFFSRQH

[8] = target: T2, 5-hydroxytryptamine receptor 2C (Homo sapiens, UniProt P28335)
T2 sequence (P28335 whole entry): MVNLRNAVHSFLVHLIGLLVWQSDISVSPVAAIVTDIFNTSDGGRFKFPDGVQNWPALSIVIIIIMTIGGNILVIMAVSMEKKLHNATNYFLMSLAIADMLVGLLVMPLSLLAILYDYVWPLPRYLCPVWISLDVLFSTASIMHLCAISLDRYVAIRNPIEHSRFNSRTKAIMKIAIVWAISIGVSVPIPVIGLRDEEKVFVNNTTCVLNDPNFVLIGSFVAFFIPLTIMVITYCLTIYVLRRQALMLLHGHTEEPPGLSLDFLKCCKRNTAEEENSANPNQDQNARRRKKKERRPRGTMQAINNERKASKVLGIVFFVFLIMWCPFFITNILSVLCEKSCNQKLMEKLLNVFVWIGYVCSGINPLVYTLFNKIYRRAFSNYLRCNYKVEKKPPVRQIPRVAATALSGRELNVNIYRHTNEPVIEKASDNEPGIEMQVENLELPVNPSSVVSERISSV

[9] = target: T3, 5-hydroxytryptamine receptor 1A (Homo sapiens, UniProt P08908)
T3 sequence (P08908 whole entry): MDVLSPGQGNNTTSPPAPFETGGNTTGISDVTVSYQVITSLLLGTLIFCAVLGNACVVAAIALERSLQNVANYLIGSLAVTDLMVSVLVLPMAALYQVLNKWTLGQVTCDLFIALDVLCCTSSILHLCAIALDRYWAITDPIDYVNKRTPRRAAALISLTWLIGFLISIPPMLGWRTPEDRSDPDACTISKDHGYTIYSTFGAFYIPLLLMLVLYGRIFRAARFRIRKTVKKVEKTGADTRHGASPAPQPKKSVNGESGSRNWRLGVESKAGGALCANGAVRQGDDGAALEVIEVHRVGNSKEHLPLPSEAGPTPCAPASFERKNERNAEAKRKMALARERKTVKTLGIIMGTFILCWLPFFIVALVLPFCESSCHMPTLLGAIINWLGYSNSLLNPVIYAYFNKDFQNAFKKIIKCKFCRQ

[10] = target: T3, 5-hydroxytryptamine receptor 1A; remark: listed apart in the source
[11] = target: 5-hydroxytryptamine receptor 2A (Homo sapiens, UniProt P28223)
Chain of 5-hydroxytryptamine receptor 2A (P28223 whole entry): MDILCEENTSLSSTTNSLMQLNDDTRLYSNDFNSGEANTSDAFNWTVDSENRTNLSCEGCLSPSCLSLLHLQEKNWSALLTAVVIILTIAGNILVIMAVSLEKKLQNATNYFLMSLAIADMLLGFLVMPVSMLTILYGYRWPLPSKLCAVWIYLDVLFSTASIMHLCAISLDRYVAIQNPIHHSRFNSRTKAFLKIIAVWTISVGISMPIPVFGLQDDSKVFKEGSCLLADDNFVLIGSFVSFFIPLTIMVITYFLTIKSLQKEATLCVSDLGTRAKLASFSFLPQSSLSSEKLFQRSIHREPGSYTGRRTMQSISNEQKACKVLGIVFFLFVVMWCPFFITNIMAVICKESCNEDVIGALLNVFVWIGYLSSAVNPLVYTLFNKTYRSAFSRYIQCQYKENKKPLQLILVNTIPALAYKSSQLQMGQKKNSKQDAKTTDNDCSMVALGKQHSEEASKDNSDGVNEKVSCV

[12] = Ratio of drug uptake in rat temporal cortex to cerebellum by measuring radioactivity at 10 mins postinjection; assay type: ADME, organism-based; conditions: in vivo
[13] = Ratio of drug uptake in rat temporal cortex to cerebellum by measuring radioactivity at 20 mins postinjection; assay type: ADME, organism-based; conditions: in vivo
[14] = target: T4, Alpha-1A adrenergic receptor (Homo sapiens, UniProt P35348); assay: Binding affinity to alpha 1A adrenergic receptor (unknown origin) assessed as inhibition constant
T4 sequence (P35348 whole entry): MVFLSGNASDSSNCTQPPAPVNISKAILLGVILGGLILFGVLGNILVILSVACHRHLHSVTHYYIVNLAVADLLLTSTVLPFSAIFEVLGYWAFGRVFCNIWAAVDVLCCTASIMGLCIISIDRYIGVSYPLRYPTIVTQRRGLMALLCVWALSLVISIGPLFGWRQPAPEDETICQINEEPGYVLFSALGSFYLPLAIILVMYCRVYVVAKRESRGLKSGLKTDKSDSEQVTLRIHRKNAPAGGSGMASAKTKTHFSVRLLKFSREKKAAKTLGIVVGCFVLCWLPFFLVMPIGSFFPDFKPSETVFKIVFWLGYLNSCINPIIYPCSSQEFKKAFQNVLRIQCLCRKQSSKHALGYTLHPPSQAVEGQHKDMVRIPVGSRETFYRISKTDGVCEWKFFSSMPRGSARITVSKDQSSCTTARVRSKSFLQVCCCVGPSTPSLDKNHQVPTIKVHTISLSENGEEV

[15] = Drug uptake in cynomolgus monkey in brain administered IV measured at 7.5 mins relative to control; assay type: ADME, tissue-based, Macaca fascicularis; conditions: in vivo, 0.125 h
[16] = target: T5, 5-hydroxytryptamine receptor 2C (Homo sapiens) (UniProt P28335); assay: Agonist activity at 5-HT2C receptor (unknown origin); assay type: functional; conditions: filed as agonist
T5 sequence (whole entry): T2 sequence (P28335 whole entry)

[17] = target: T5, 5-hydroxytryptamine receptor 2C (Homo sapiens); assay: Binding affinity to 5-HT2C (unknown origin); conditions: filed as agonist
[18] = target: T1, 5-hydroxytryptamine receptor 7; assay: Binding affinity to human recombinant 5-HT7 receptor expressed in CHO cells assessed as inhibition constant; assay type: cell-based
[19] = Drug uptake in pig brain cortex measured at 10 to 20 mins postinjection; assay type: ADME, organism-based, Sus scrofa; conditions: in vivo, time 10-20 min
[20] = target: T3, 5-hydroxytryptamine receptor 1A; assay: Binding affinity to 5-HT1A receptor in human HeLa cell membrane assessed as inhibition constant by Packard top-counter analysis; assay type: cell membranes
[21] = target: T6, 5-hydroxytryptamine receptor 1A (Rattus norvegicus, UniProt P19327)
T6 sequence (P19327 whole entry): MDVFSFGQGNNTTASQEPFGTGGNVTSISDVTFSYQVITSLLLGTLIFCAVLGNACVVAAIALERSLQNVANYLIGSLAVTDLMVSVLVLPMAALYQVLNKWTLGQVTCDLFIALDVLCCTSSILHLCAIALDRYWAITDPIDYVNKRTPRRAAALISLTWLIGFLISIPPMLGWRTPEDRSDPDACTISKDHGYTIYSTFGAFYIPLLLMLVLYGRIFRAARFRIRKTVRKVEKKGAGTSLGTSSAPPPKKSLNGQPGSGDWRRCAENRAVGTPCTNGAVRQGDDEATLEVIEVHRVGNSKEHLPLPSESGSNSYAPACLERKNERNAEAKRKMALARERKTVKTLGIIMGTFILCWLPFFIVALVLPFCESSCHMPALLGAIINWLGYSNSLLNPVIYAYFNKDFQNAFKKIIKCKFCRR

SMILES: COc1cc(CCNCc2ccccc2F)c(O[11CH3])cc1I
- Drug uptake [1]: 0.17

SMILES: CN1CCN(c2cccc3c2C[C@@H](NC(=O)c2ccc(N4CCOCC4)cc2)CC3)CC1
- Ki [2]: 0.46 nM

SMILES: CCC(=O)Nc1ccc2[nH]cc(C3CCN(C)CC3)c2n1
- Ki [3]: > 300 nM
- Ki [4]: > 300 nM
- Ki [5]: > 300 nM
- Ki [6]: > 300 nM
- Ki [7]: > 300 nM
- Ki [8]: > 300 nM
- Ki [9]: > 300 nM

SMILES: CCCN(CCCCC1C(=O)CC2(CCCC2)CC1=O)[C@H]1CCc2cccc(OC)c2C1
- Ki [10]: 0.9 nM

SMILES: CN1CCN(c2cc(F)cc3c(=O)cc(C(=O)Nc4ccc(N5CCOCC5)c(F)c4)oc23)CC1
- Ki [2]: 0.13 nM

SMILES: [11CH3]Oc1ccccc1N1CCN(CCCN/C(=N\C#N)c2ccccn2)CC1
- Ki [10]: 0.8 nM

SMILES: COc1c(Br)cc([18F])cc1CCNCc1ccccc1O
- Ki [11]: 7.2 nM

SMILES: [11CH3]N1CCN(c2cccc3c2O[C@@H](C(=O)Nc2ccc(N4CCOCC4)cc2)CC3)CC1
- Ki [2]: 0.3 nM

SMILES: COc1ccccc1N1CCN(CCN(c2cccc(F)n2)[11C](=O)N2CCCCC2)CC1
- Ratio [12]: 1.9
- Ratio [13]: 3

SMILES: COc1ccccc1N1CCN(CCCN/C(=N\C#N)c2ccccn2)CC1
- Ki [14]: 20 nM

SMILES: COc1cc(C(F)(F)F)c(OC)cc1CCNCc1ccccc1O[11CH3]
- Drug uptake [1]: 0.82

SMILES: COc1ccccc1N1CCN(CCN(c2cccc(F)n2)[11C](=O)C2CCCCC2)CC1
- Drug uptake [15]: 8%

SMILES: COC(=O)N1CCN(c2ccc(NC(=O)C3CCc4cc(F)cc(N5CCN([11CH3])CC5)c4O3)cc2)CC1 (stereo unspecified)
- Ki [2]: 0.5 nM

SMILES: c1cc2c3c(c1)[C@H]1CCC[C@H]1CN3CCNC2
- K [16]: 8 nM
- K [17]: 3 nM

SMILES: O=C(NCCN1CCN(C2CCCc3ccccc32)CC1)c1ccc([18F])cc1 (stereo unspecified)
- Ki [10]: 0.5 nM

SMILES: O=S(=O)(c1ccc(F)cc1)N1CCC[C@@H]1CCCN1CCN(c2ccc(Cl)cc2)CC1
- Ki [18]: 0.32 nM

SMILES: Cc1[nH]c2ccc(NC(=O)c3ccc(F)cc3)cc2c1CCN(C)C
- Ki [3]: > 260 nM
- Ki [4]: > 260 nM
- Ki [5]: > 260 nM
- Ki [6]: > 260 nM
- Ki [7]: > 260 nM
- Ki [8]: > 260 nM
- Ki [9]: > 260 nM

SMILES: Cc1ccc(N2CCN([11CH3])CC2)c2nc(C(=O)Nc3ccc(N4CCOCC4)cc3)ccc12
- Ki [2]: 0.2 nM

SMILES: COc1c(Br)cc([18F])cc1CCNCc1cccc2c1OCO2
- Ki [11]: 1.7 nM

SMILES: CC(C)c1cc(-c2ccc(F)c3ccccc23)nc(N)n1
- Ki [6]: 0.3 nM

SMILES: c1cc2c3c(c1)[C@H]1CCC[C@H]1N3CCNC2
- K [16]: 8 nM
- K [17]: 10 nM

SMILES: O=S(=O)(c1ccccc1F)N1CCC[C@@H]1CCCN1CCN(c2ccccn2)CC1
- Ki [18]: 0.17 nM

SMILES: CN1CCN(c2cccc3c2C[C@H](NC(=O)c2ccc(OS(C)(=O)=O)cc2)CC3)CC1
- Ki [2]: 0.25 nM

SMILES: COc1ccccc1N1CCN(CCNC(=O)c2ccncc2)CC1
- Ki [14]: 20 nM

SMILES: COc1cc(Br)c(OC)c(CCNCc2cccc(F)c2)c1
- Ki [11]: 2.7 nM

SMILES: COc1cc(CCN)c(O[11CH3])cc1I
- Drug uptake [1]: 0.17

SMILES: [11CH3]Sc1cccc(C(=O)NC[C@H]2CCCN2CCc2ccccc2)c1
- Ki [10]: 160 nM

SMILES: COc1cc(CCNCc2ccccc2OC)c(O[11CH3])cc1I
- SUV [19]: 0.8

SMILES: COc1cc(Br)c(O[11CH3])cc1CCNCc1ccccc1OC
- SUV [19]: 0.8

SMILES: O=C(C1CCCCC1)N(CCN1CCN(c2ccccc2O)CC1)c1ccccn1
- Ki [10]: 1.4 nM
- Ki [14]: 364 nM

SMILES: COc1ccccc1N1CCN(CCN(C(=O)N2CCCCC2)c2cccc(F)n2)CC1
- Ki [20]: 0.51 nM

SMILES: O=C(NCCN1CCN(c2cccc(C(F)(F)F)n2)CC1)c1ccc(F)cc1
- Ki [10]: 0.5 nM

SMILES: [11CH3]N1CCN(c2cccc3c2O[C@H](C(=O)Nc2ccc(N4CCOCC4)cc2)CC3)CC1
- Ki [2]: 0.6 nM

SMILES: CCCN(CCC)C1CCc2cccc(SC)c2C1 (racemic)
- IC50 [21]: 1.2 nM

SMILES: CC1CCN(CCC[C@H]2CCCN2S(=O)(=O)c2ccc(F)cc2)CC1
- Ki [18]: 16 nM

SMILES: COc1ccccc1N1CCN(CCN(C(=O)N2CCCCC2)c2cccc(Br)n2)CC1
- Ki [20]: 0.31 nM

SMILES: [11CH3]N1CCN(c2cccc3c2OC(C(=O)Nc2ccc(N4CCOCC4)cc2)CC3)CC1 (racemic)
- Ki [2]: 0.4 nM

SMILES: COc1ccccc1N1CCN(CCNC(=O)C2CCCCC2)CC1
- IC50 [21]: 4.3 nM

SMILES: CCc1cc(OC)cc(CCNCc2cccc(F)c2)c1OC
- Ki [11]: 2.4 nM

SMILES: CCCN(CCCSC)C1CCc2cccc(O)c2C1 (racemic)
- Ki [10]: 0.19 nM

SMILES: COc1ccccc1N1CCN(CCN(C(=O)c2ccc(F)c(C)c2)c2ccccn2)CC1
- Ki [14]: 13 nM

SMILES: COc1ccccc1N1CCN(CCNC(=O)c2ccccn2)CC1
- Ki [14]: 20 nM

SMILES: CC1CCN(CCC[C@H]2CCCN2S(=O)(=O)c2ccccc2F)CC1
- Ki [18]: 7.6 nM

SMILES: COc1cccc2c1CCCC2CCCN1CCN(c2ccccc2)CC1 (stereo unspecified)
- Ki [10]: 0.5 nM

SMILES: COc1ccccc1N1CCN(CCCCc2ccc3c(c2)oc(=O)n3C)CC1
- Ki [10]: 0.04 nM

SMILES: CC(=O)Nc1ccc2[nH]cc(C3CCN(C)CC3)c2n1
- Ki [3]: > 240 nM
- Ki [4]: > 240 nM
- Ki [5]: > 240 nM
- Ki [6]: > 240 nM
- Ki [7]: > 240 nM
- Ki [8]: > 240 nM
- Ki [9]: > 240 nM

SMILES: CCCN(CCC)[C@@H]1CCc2cccc(SC)c2C1
- Ki [10]: 0.6 nM

SMILES: COc1ccccc1N1CCN(CCNC(=O)C2CC3CCC2CC3)CC1 (stereo unspecified)
- IC50 [21]: 1 nM

SMILES: O=S(=O)(c1ccccc1F)N1CCC[C@@H]1CCCN1CCN(c2ccc(Cl)cc2)CC1
- Ki [18]: 0.22 nM
